The values that follow come from patent US20160010047A1, “DEVICE AND METHOD FOR WETTING A SAMPLE WITH AN AEROSOL” (Helmholtz Zentrum Muenchen Deutsches Forschungszentrum fuer …, priority 2013, published 2016).

The experiment concerns human pulmonary cell line (A549) stimulated with TNFα; interleukin 8 (IL-8). Briefly: Anti-inflammatory effect on TNFα-stimulated A549 cells (IL-8 as inflammatory marker), substance applied as aerosol at the ALI with device 2 or pipetted on submerged cells. In kind it is cell-based. The note with it: FIG. 4. From the text:
On the other hand, if polarized lung epithelial cells (e.g. primary cells) are used, significant differences in the biological response can be expected. After stimulation of A549 cells with the tumor necrosis factor α (TNF α), the interleukin 8 (IL-8) as inflammatory marker is induced approximately 7-fold (corresponds to value 1 in FIG. 4), relative to the basal value (non-stimulated cells). […] This exemplifies that with device 2, aerosolized active substances can be applied accurately dosed and without loss of bioactivity (e.g. due to shear stresses during nebulization) on human pulmonary cells at the ALI. Thus, device 2 is suitable for the systematic screening of substances with respect to their potential as an active ingredient in aerosolized form.
This device 2 is thereby validated as a tool for quantitative drug screening for aerosolized liquid substances.

For the compound `CC(C)C[C@H](NC(=O)[C@H](Cc1ccccc1)NC(=O)c1cnccn1)B(O)O` [Bortezomib], under “A549 cells at the ALI, TNFα-stimulated”, the “dose-response curve after administration in aerosolized form with device 2 (ALI) compared with reference curve (substance pipetted on submerged cells)” value was “identical to the reference curve”. For the same compound, where the note is “A549 cells, non-polarized, stimulated with TNFα, dose-dependent”, the “reduction of the TNFα-induced inflammatory effect (IL-8 induction), factor” value is recorded as at most 2.
